# Biological target: T1, human androgen receptor (Homo sapiens, UniProt P10275)
# T1 construct: expressed in transfected cells; host or cells: Chinese hamster ovary (CHO) cells, cell line CHO-AR-pMMTV-LUC 1G12-A5-CA
# T1 sequence (P10275 1-920): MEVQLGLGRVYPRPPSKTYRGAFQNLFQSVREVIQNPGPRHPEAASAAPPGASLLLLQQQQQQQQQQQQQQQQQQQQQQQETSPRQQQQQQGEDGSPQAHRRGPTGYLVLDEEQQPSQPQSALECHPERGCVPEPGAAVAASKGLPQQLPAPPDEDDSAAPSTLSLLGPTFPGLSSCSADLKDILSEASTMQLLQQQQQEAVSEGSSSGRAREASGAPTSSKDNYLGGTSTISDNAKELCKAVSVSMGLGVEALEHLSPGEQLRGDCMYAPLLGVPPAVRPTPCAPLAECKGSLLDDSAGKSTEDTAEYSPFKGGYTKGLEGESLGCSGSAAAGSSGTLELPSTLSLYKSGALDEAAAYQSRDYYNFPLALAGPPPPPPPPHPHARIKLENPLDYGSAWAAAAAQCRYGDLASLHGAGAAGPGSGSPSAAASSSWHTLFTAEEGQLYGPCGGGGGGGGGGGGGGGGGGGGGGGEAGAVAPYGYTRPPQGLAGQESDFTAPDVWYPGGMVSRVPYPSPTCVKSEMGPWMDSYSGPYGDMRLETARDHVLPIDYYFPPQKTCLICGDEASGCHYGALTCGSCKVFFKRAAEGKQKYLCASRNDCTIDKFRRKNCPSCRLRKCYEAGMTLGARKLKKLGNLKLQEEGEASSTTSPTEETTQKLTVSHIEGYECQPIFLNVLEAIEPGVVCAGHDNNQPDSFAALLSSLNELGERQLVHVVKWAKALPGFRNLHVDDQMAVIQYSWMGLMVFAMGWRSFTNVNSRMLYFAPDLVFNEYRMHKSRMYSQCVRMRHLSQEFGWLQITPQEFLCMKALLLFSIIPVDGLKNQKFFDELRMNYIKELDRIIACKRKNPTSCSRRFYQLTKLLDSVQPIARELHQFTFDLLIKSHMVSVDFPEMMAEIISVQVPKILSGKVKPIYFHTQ
# Assay: Androgen receptor transactivation assay, androgenic activity in the presence of 0.1 µmol/l onapristone (CHO-AR-pMMTV-LUC cells; Table 5)
# Type: cell-based
# Details: for ago efficacy: maximal intrinsic activity in the presence of 100 nM DHT set at 1.00; for ago potency: potency expressed as percentage of DHT activity
# Experimental: The androgenic activity (EC50, potency, and efficacy) of the compounds in Table 5 was determined in an in vitro bioassay of Chinese hamster ovary (CHO) cells stably transfected with the human androgen receptor expression plasmid and a reporter plasmid in which the MMTV promotor is linked to the luciferase reporter gene. The cell line CHO-AR-pMMTV-LUC 1G12-A5-CA is described in Schoonen et al. (J. Steroid Biochem. Molec. Biol. […]; 74: 213-222). The androgen receptor activity of compounds was determined in the presence of 0.1 µmol/l onapristone. The maximal efficacy in the presence of 100 nmol/l DHT was set as 100%. The potencies are expressed as percentage of DHT activity. Table 5 Androgen receptor activity
SMILES,ago efficacy,ago potency
"O=C(Nc1ccc2c(Sc3ccccc3[N+](=O)[O-])cn(Cc3cc(F)cc(F)c3)c2c1)C(F)F [Compound 98, N-[1-(3,5-Difluoro-benzyl)-3-(2-nitro-phenylsulfanyl)-1H-indol-6-yl]-2,2-difluoro-acetamide]",+ (between 0.50 and 0.80),++ (>5%)
"CCC(=O)Nc1ccc2c(Sc3ccccc3[N+](=O)[O-])cn(Cc3cc(F)cc(F)c3)c2c1 [Compound 99, N-[1-(3,5-Difluoro-benzyl)-3-(2-nitro-phenylsulfanyl)-1H-indol-6-yl]-propionamide]",+ (between 0.50 and 0.80),± (between 0.1 % and 1%)
"O=C(CF)Nc1ccc2c(Sc3ccccc3[N+](=O)[O-])cn(Cc3ccccn3)c2c1 [Compound 100, 2-Fluoro-N-[3-(2-nitro-phenylsulfanyl)-1-pyridin-2-ylmethyl-1H-indol-6-yl]-acetamide]",++ (≥0.80),+ (between 1% and 5%)
"CC(=O)Nc1ccc2c(Sc3ccccc3[N+](=O)[O-])cn(Cc3ccccn3)c2c1 [Compound 101, N-[3-(2-Nitro-phenylsulfanyl)-1-pyridin-2-ylmethyl-1H-indol-6-yl]-acetamide]",+ (between 0.50 and 0.80),+ (between 1% and 5%)
"CCC(=O)Nc1ccc2c(Sc3ccccc3[N+](=O)[O-])cn(Cc3ccccn3)c2c1 [Compound 102, N-[3-(2-Nitro-phenylsulfanyl)-1-pyridin-2-ylmethyl-1H-indol-6-yl]-propionamide]",+ (between 0.50 and 0.80),+ (between 1% and 5%)
"CC(=O)Nc1ccc2c(Sc3ccccc3[N+](=O)[O-])cn(Cc3cccnc3)c2c1 [Compound 103, N-[3-(2-Nitro-phenylsulfanyl)-1-pyridin-3-ylmethyl-1H-indol-6-yl]-acetamide]",+ (between 0.50 and 0.80),+ (between 1% and 5%)
"O=C(CF)Nc1ccc2c(Sc3ccccc3[N+](=O)[O-])cn(Cc3cccnc3)c2c1 [Compound 104, 2-Fluoro-N-[3-(2-nitro-phenylsulfanyl)-1-pyridin-3-ylmethyl-1H-indol-6-yl]-acetamide]",- (<0.20),+ (between 1% and 5%)
"CCC(=O)Nc1ccc2c(Sc3ccccc3[N+](=O)[O-])cn(Cc3cccnc3)c2c1 [Compound 105, N-[3-(2-Nitro-phenylsulfanyl)-pyridin-3-ylmethyl-1H-indol-6-yl]-propionamide]",± (between 0.20 and 0.50),+ (between 1% and 5%)
"CS(=O)(=O)Nc1ccc2c(Sc3ccccc3[N+](=O)[O-])cn(Cc3cc(F)cc(F)c3)c2c1 [Compound 106, N-[1-(3,5-Difluoro-benzyl)-3-(2-nitro-phenylsulfanyl)-1H-indol-6-yl]-methanesulfonamide]",++ (≥0.80),+ (between 1% and 5%)
"O=[N+]([O-])c1ccccc1Sc1cn(Cc2cc(F)cc(F)c2)c2cc(NS(=O)(=O)c3ccsc3)ccc12 [Compound 107, Thiophene-3-sulfonic acid [1-(3,5-difluoro-benzyl)-3-(2-nitro-phenylsulfanyl)-1H-indol-6-yl]-amide]",++ (≥0.80),+ (between 1% and 5%)
"Cn1cnc(S(=O)(=O)Nc2ccc3c(Sc4ccccc4[N+](=O)[O-])cn(Cc4cc(F)cc(F)c4)c3c2)c1 [Compound 108, 1-Methyl-1H-imidazole-4-sulfonic acid [1-(3,5-difluoro-benzyl)-3-(2-nitro-phenylsulfanyl)-1H-indol-6-yl]-amide]",++ (≥0.80),+ (between 1% and 5%)
"CN(C)C(=O)c1ccc2c(Sc3ccccc3[N+](=O)[O-])cn(Cc3ccccn3)c2c1 [Compound 109, 3-(2-Nitro-phenylsulfanyl)-1-pyridin-2-ylmethyl-1H-indole-6-carboxylic acid dimethylamide]",++ (≥0.80),+ (between 1% and 5%)
"CNC(=O)c1ccc2c(Sc3ccccc3[N+](=O)[O-])cn(Cc3ccccn3)c2c1 [Compound 110, 3-(2-Nitro-phenylsulfanyl)-1-pyridin-2-ylmethyl-1H-indole-6-carboxylic acid methylamide]",+ (between 0.50 and 0.80),+ (between 1% and 5%)
"NC(=O)c1ccc2c(Sc3ccccc3[N+](=O)[O-])cn(Cc3ccccn3)c2c1 [Compound 111, 3-(2-Nitro-phenylsulfanyl)-1-pyridin-2-ylmethyl-1H-indole-6-carboxylic acid amide]",± (between 0.20 and 0.50),± (between 0.1 % and 1%)
"CNC(=O)c1ccc2c(Sc3ccccc3[N+](=O)[O-])cn(Cc3cccnc3)c2c1 [Compound 112, 3-(2-Nitro-phenylsulfanyl)-1-pyridin-3-ylmethyl-1H-indole-6-carboxylic acid methylamide]",± (between 0.20 and 0.50),+ (between 1% and 5%)
"CCNC(=O)c1ccc2c(Sc3ccccc3[N+](=O)[O-])cn(Cc3cccnc3)c2c1 [Compound 113, 3-(2-Nitro-phenylsulfanyl)-1-pyridin-3-ylmethyl-1H-indole-6-carboxylic acid ethylamide]",+ (between 0.50 and 0.80),+ (between 1% and 5%)
"O=C(NC1CC1)c1ccc2c(Sc3ccccc3[N+](=O)[O-])cn(Cc3cccnc3)c2c1 [Compound 114, 3-(2-Nitro-phenylsulfanyl)-1-pyridin-3-ylmethyl-1H-indole-6-carboxylic acid cyclopropylamide]",++ (≥0.80),+ (between 1% and 5%)
"COc1ccc2c(Sc3ccccc3[N+](=O)[O-])cn(Cc3cncnc3)c2c1 [Compound 115, 6-Methoxy-3-(2-nitro-phenylsulfanyl)-1-pyrimidin-5-ylmethyl-1H-indole]",+ (between 0.50 and 0.80),++ (>5%)
"COc1ccc2c(Sc3ccccc3[N+](=O)[O-])cn(Cc3ccncn3)c2c1 [Compound 116, 6-Methoxy-3-(2-nitro-phenylsulfanyl)-1-pyrimidin-4-ylmethyl-1H-indole]",+ (between 0.50 and 0.80),+ (between 1% and 5%)
"COc1ccc2c(Sc3ccccc3[N+](=O)[O-])cn(Cc3cnccn3)c2c1 [Compound 117, 6-Methoxy-3-(2-nitro-phenylsulfanyl)-1-pyrazin-2-ylmethyl-1H-indole]",+ (between 0.50 and 0.80),+ (between 1% and 5%)
"O=CNc1ccc2c(Sc3ccccc3[N+](=O)[O-])cn(Cc3cncnc3)c2c1 [Compound 118, N-[3-(2-Nitro-phenylsulfanyl)-1-pyrimidin-5-ylmethyl-1H-indol-6-yl]-formamide]",+ (between 0.50 and 0.80),++ (>5%)
"N#Cc1ccc2c(Sc3ccccc3[N+](=O)[O-])cn(Cc3ccccn3)c2c1 [Compound 119, 3-(2-Nitro-phenylsulfanyl)-1-pyridin-2-ylmethyl-1H-indole-6-carbonitrile]",++ (≥0.80),++ (>5%)
"Cl.N#Cc1ccc2c(Sc3ccccc3[N+](=O)[O-])cn(Cc3ccccn3)c2c1 [Compound 120, 3-(2-Nitro-phenylsulfanyl)-1-pyridin-2-ylmethyl-1H-indole-6-carbonitrile monohydrochloride]",++ (≥0.80),++ (>5%)
"N#Cc1ccc2c(Sc3ccccc3[N+](=O)[O-])cn(Cc3cccnc3)c2c1 [Compound 121, 3-(2-Nitro-phenylsulfanyl)-1-pyridin-3-ylmethyl-1H-indole-6-carbonitrile]",++ (≥0.80),+ (between 1% and 5%)
"N#Cc1ccc2c(Sc3ccccc3[N+](=O)[O-])cn(Cc3ccncc3)c2c1 [Compound 122, 3-(2-Nitro-phenylsulfanyl)-1-pyridin-4-ylmethyl-1H-indole-6-carbonitrile]",+ (between 0.50 and 0.80),+ (between 1% and 5%)
"N#Cc1ccc2c(Sc3ccccc3[N+](=O)[O-])cn(Cc3cncnc3)c2c1 [Compound 123, 3-(2-Nitro-phenylsulfanyl)-1-pyrimidin-5-ylmethyl-1H-indole-6-carbonitrile]",++ (≥0.80),++ (>5%)

# Reference: patent publication EP1585727B1, “INDOLES USEFUL IN THE TREATMENT OF ANDROGEN-RECEPTOR RELATED DISEASES” (priority 2002, dated 2004)
